According to ChEMBL document CHEMBL2331136, “Apoptosis-inducing activity of the actin-depolymerizing agent aplyronine A and its side-chain derivatives” (Bioorg Med Chem Lett, 2013):
Active and inactive are the calls of the source. The calls are words filed in the database; no cut-off is given here.

What was measured:
[1] = Induction of F-actin (unknown origin) polymerization after 1 hr by spectrofluorometric analysis; parameters: species or system Homo sapiens
[2] = tested on: HL-60; test: Cytotoxicity against human HL60 cells after 72 hrs by MTT assay; assay type: functional, cell-based; conditions: HL-60, 72 h
[3] = tested on: HL-60; test: Cytotoxicity against human HL60 cells after 24 hrs by trypan blue dye exclusion assay in presence of Z-VAD-FMK; assay type: functional, cell-based
[4] = tested on: HL-60; test: Induction of apoptosis in human HL60 cells assessed as disruption and aggregation of actin filaments at 30 uM after 12 hrs using rhodamine-phalloidin staining by fluorescence microscopy; assay type: functional, cell-based
[5] = tested on: HL-60; test: Induction of apoptosis in human HL60 cells assessed as activation of caspase-3 at 10 to 30 uM after 18 hrs by spectrophotometric analysis; assay type: functional, cell-based
[6] = tested on: HL-60; test: Cytotoxicity against human HL60 cells after 24 hrs by trypan blue dye exclusion assay; assay type: functional, cell-based
[7] = tested on: HL-60; test: Induction of apoptosis in human HL60 cells assessed as nuclear shrinkage and fragmentation at 30 uM after 12 hrs using rhodamine-phalloidin staining by fluorescence microscopy in presence of Z-VAD-FMK; assay type: functional, cell-based
[8] = tested on: HL-60; test: Induction of apoptosis in human HL60 cells assessed as nuclear shrinkage and fragmentation at 30 uM after 12 hrs using rhodamine-phalloidin staining by fluorescence microscopy; assay type: functional, cell-based
[9] = tested on: HL-60; test: Induction of apoptosis in human HL60 cells assessed as DNA fragmentation after 24 hrs by agarose gel electrophoresis; assay type: functional, cell-based
[10] = tested on: HL-60; test: Induction of apoptosis in human HL60 cells assessed as disruption and aggregation of actin filaments at 1 nM after 12 hrs using rhodamine-phalloidin staining by fluorescence microscopy; assay type: functional, cell-based
[11] = tested on: HeLa S3; test: Cytotoxicity against human HeLaS3 cells after 48 hrs by trypan blue dye exclusion assay; assay type: functional, cell-based
[12] = tested on: HL-60; test: Induction of apoptosis in human HL60 cells assessed as activation of caspase-3 at 0.1 to 1 nM after 18 hrs by spectrophotometric analysis; assay type: functional, cell-based
[13] = tested on: HeLa S3; test: Cytotoxicity against human HeLaS3 cells after 48 hrs by trypan blue dye exclusion assay in presence of Z-VAD-FMK; assay type: functional, cell-based
[14] = tested on: HL-60; test: Induction of apoptosis in human HL60 cells assessed as nuclear shrinkage and fragmentation at 1 nM after 12 hrs using rhodamine-phalloidin staining by fluorescence microscopy in presence of Z-VAD-FMK; assay type: functional, cell-based
[15] = tested on: HeLa S3; test: Induction of apoptosis in human HeLaS3 cells assessed as DNA fragmentation after 24 hrs by agarose gel electrophoresis; assay type: functional, cell-based
[16] = Cytotoxicity against human HeLaS3 cells after 72 hrs by MTT assay; assay type: functional, cell-based; conditions: HeLa S3, 72 h
[17] = tested on: HL-60; test: Induction of apoptosis in human HL60 cells assessed as disruption and aggregation of actin filaments at 0.1 nM after 12 hrs using rhodamine-phalloidin staining by fluorescence microscopy; assay type: functional, cell-based
[18] = tested on: HL-60; test: Induction of apoptosis in human HL60 cells assessed as nuclear shrinkage and fragmentation at 1 nM after 12 hrs using rhodamine-phalloidin staining by fluorescence microscopy; assay type: functional, cell-based

Structure (SMILES)	IC50 [1] [µM]	IC50 [2] [µM]	Activity [3]	Activity [6]	Activity [9]	Activity [11]	Activity [13]	Activity [15]	IC50 [16] [µM]	also measured
CC(=O)O[C@@H]([C@@H](C)[C@@H](/C=C/CCCCc1ccccc1)OC(=O)[C@H](C)N(C)C)[C@H](C)/C=C/N(C)C=O	21	12.7	inactive	Active	Active	–	–	–	–	Activity [4]: Active; Activity [5]: Active; Activity [7]: inactive; Activity [8]: Active
COCC(C(=O)O[C@@H]1C/C=C/C=C/C(=O)O[C@H]([C@@H](C)[C@@H](O)[C@@H](C)CC[C@@H](OC(=O)C(C)N(C)C)[C@H](C)[C@H](OC(C)=O)[C@H](C)/C=C/N(C)C=O)C/C=C/[C@H](OC)C[C@H](C)C/C=C(\C)[C@@H](OC)CC[C@@H](C)[C@@H](O)[C@@H]1C)N(C)C (some centres not stated) [APLYRONINE A]	1.6	–	inactive	Dose-dependent effect	Active	Dose-dependent effect	inactive	Active	0.00029	Activity [10]: Active; Activity [12]: Active; Activity [14]: inactive; Activity [17]: Active; Activity [18]: Active
COC[C@@H](OC)C(=O)O[C@H](CC[C@H](C)[C@@H](C[C@@H]1OC(=O)C[C@@H](O)C/C=C/C(=O)[C@H](C)[C@H](OC)c2coc(n2)-c2coc(n2)-c2coc(n2)/C=C/C[C@H](OC)[C@H]1C)OC)[C@H](C)[C@H](OC(C)=O)[C@H](C)/C=C/N(C)C=O [MYCALOLIDE B]	1.7	0.0047	inactive	Dose-dependent effect	Active	Dose-dependent effect	inactive	Active	0.052	–

Continued, in another order:

IC50 [1] [µM]	Structure (SMILES)	IC50 [2] [µM]	Activity [3]	Activity [6]	Activity [9]	Activity [11]	Activity [13]	Activity [15]	IC50 [16] [µM]	also measured
210	C/C=C/[C@@H](OC(=O)[C@H](C)N(C)C)[C@H](C)[C@H](OC(C)=O)[C@H](C)/C=C/N(C)C=O	240	–	–	–	–	–	–	–	–
85	CC(=O)O[C@@H]([C@@H](C)[C@@H](/C=C/CCc1ccccc1)OC(=O)[C@H](C)N(C)C)[C@H](C)/C=C/N(C)C=O	53	–	–	–	–	–	–	–	–
47	CC(=O)O[C@@H]([C@@H](C)[C@@H](/C=C/c1ccccc1)OC(=O)[C@H](C)N(C)C)[C@H](C)/C=C/N(C)C=O	27.5	–	–	–	–	–	–	–	–
